Experimental findings from US20160251702A1, “Process and Kit for Predicting Antibiotic Resistance and Susceptibility of Bacteria” (priority 2015, published 2016) are described below.

Where two headings read alike, the source gives them in different places.

Format in all cases: cell-based
The subject of assay [1] is E. coli. The assay can be described thus: Antibiotic resistance of the HMO reference collection of E. coli (Lookup Table). The conditions noted are these: Reference set isolates (1227, 2010-2013). How it is done: Both septatypes/clonotypes and antimicrobial profiles were identified.
In total, 1227 E. coli isolated from the HMO (Group Health) clinical lab in 2010-2013 were analyzed. All had their clonotype type determined and resistance to antibiotics tested. Septatypes were deduced from CH types (clonotypes). Red indicates resistance >30%. Yellow: more than 15% but less than 30%. Green: less than 15%.

In assay [2] the test system is E. coli. Description: Antibiotic resistance of E. coli isolates from the field trial (Group Health Urgent Care). The conditions noted are these: for overall resistance level: Field trial isolates; for Resistance rate in GH UC E. coli: field trial, Group Health Urgent Care. The method, then: The disclosed test kit and process was conducted on urinalysis-positive urine samples on-site at the HMO urgent care clinical laboratory. All urine samples obtained at Urgent Care facility were tested by the 7-SNP-based CLT(clonotyping) test and by a standard E. coli culturing test.
In total, 750 urinalysis-positive samples from the HMO urgent care lab were processed in CLT test and standard culturing test.
The E. coli clonotypes identified in the field study (out of 750 samples, see above) were compared to a reference collection of E. coli to (1) compare the clonotypes distribution, (2) compare the overall resistance profile, and (3) use the reference collection to predict if antibiotics can or cannot be allowed for use in each case in the field study (as a Lookup Table). Further, the prediction from (3) was compared to actual resistance of individual isolates and to clinical data regarding the prescription of antibiotics in each case. From this we can see if the implementation of the CLT test would improve the choice of antibacterial therapy.
For clone-based prediction of bacterial resistance of field study isolates we used a 15% resistance as a cutoff for rejection of an antibiotic.

Assay [3] relates to E. coli. Description: CH clonotypes correlated with antibiotic susceptibility profiles of urine E. coli isolates. From the text: This example illustrates a high-resolution fumC/fimH (CH) clonotyping scheme for E. coli based on sequence variations within these highly-variable omnipresent genes for fumarase and fimbrial adhesin of E. coli, respectively. We correlated CH clonotypes with antibiotic susceptibility profiles among 1,600 urine E. coli isolates from clinical microbiology laboratories in Seattle (Group Health, UW, Harborview, and Children's Hospitals), Minneapolis (VA Medical Center), and Munster, Germany (University Clinic).
We next determined how knowledge of cumulative clonotype vs. overall (species) antibiogram could reduce potential ‘drug-bug’ mismatches during empirical antibiotic selection. We used the IDSA-recommended 80% susceptibility cutoff level to allow the use of specific antibiotic for each clonotype.

For a further assay, the system named is Escherichia coli. Description: Disk diffusion susceptibility of the reference set of clinical E. coli isolates split by 7-SNP typing. The conditions noted are these: for prevalence of resistance: total E. coli study population. How it is done: This example illustrates setting up a reference database consisting of 2,559 random single-patient clinical E. coli isolates of primarily extra-intestinal origin, at eight international clinical microbiology laboratories. […] Conventional MLST (multi-locus sequence typing) was performed either in full using the standard scheme of 7 MLST loci (adk, fumC, gyrB, icd, mdh, purA, and recA) (Wirth et al., 2006. Sex and virulence in Escherichia coli: an evolutionary perspective. Mol, Microbiol, 60:1136-1151.) or as a combination of partial MLST and fumC/fimH typing, as described previously (Tchesnokova et al. 2013. Predictive diagnostics for Escherichia coli infections based on the clonal association of antimicrobial resistance and clinical outcome. J. Clin. Microbiol. 51:2991-2999). Some ST complexes, as identified by the eBURST v3 software, were defined operationally as a single ‘ST’ and were designated based on the ST identified as the cluster's founder (see Table 5) (Feil et al. 2004. eBURST: inferring patterns of evolutionary descent among clusters of related bacterial genotypes from multilocus sequence typing data. J. Bacteriol. 186:1518-1530).
Susceptibility to seven antibiotics was determined using a standardized disk diffusion method according to Clinical and Laboratory Standards Institute guidelines.
On the technique in general: In agar diffusion tests the substance spreads into inoculated agar from a disc or well.

Assay [4] concerns E. coli. The method, then: This example illustrates implementation of clonal testing in a healthcare community microbiology laboratory. We assessed the presence of E. coli sub-strains ST131 and ST69 (n=619) E. coli positive cultures. […] The tests were conducted to identify ST69 of ST131 genes specific to each clonotype on bacterial DNA isolated from patient urine specimens using RT-PCR instrumentation.

With `CC1(C)S[C@@H]2[C@H](NC(=O)[C@H](N)c3ccccc3)C(=O)N2[C@H]1C(=O)O` [Ampicillin, ampicillin], the overall resistance level in the assay on E. coli [1] is on record as 44.7; in the assay on E. coli [2] it was 55.6.
For `Cc1nnc(SCC2=C(C(=O)O)N3C(=O)[C@@H](NC(=O)Cn4cnnn4)[C@H]3SC2)s1` [cefazolin], the overall resistance level in the assay with E. coli [1] is listed as 15.5; in the assay with E. coli [2], 12.2. The Total resistant in the assay with E. coli [3] (1,600 urine E. coli isolates) amounted to 19.7%. Moreover, in the assay with E. coli [3] (isolates of clonotypes allowed for treatment), the “% Resistant among Allowed” value is 10.7%. In addition, the “% Resistant among Rejected” value in the assay on E. coli [3] (isolates of clonotypes rejected for treatment) amounted to 32.0%. The prevalence of resistance in the assay on Escherichia coli is 23%.
For `CO/N=C(\C(=O)N[C@@H]1C(=O)N2C(C(=O)O)=C(CSc3nc(=O)c(=O)[nH]n3C)CS[C@H]12)c1csc(N)n1` [ceftriaxone], the overall resistance level in the assay on E. coli [1] is given as 3.7; in the assay on E. coli [2] it was 4.8. Also, the prevalence of resistance in the assay with Escherichia coli is recorded as 9%.
As to `O=C1CN(/N=C/c2ccc([N+](=O)[O-])o2)C(=O)N1` [nitrofurantoin], the values for the overall resistance level in the assay on E. coli [1] and in the assay with E. coli [2] were 1.3 and 2.9, respectively. Moreover, in the assay on Escherichia coli, the prevalence of resistance is on record as 11%. Further, the “Resistance rate in GH UC E. coli” value in the assay with E. coli [2] is reported as 2.9%.
amoxicillin/clavulanate: in the assay on E. coli [1], the overall resistance level is reported as 15.4. In addition, in the assay with Escherichia coli, the prevalence of resistance is on record as 28%. For the same molecule, in the assay with E. coli [2], the overall resistance level is on record as 21.2 and the “Resistance rate in GH UC E. coli” value turned out to be 25.6%.
As to trimethoprim/sulfamethoxazole, the resistant entry with E. coli [4] (clonotype ST69) and with E. coli [4] (clonotype ST131) was “greater than 40%” throughout. The same molecule came in with a Resistance in the assay with E. coli [4] (study group, n=619 E. coli positive cultures) of 15%. Besides, the figures for the overall resistance level in the assay on E. coli [1] and in the assay with E. coli [2] were 21.4 and 25.8, respectively. Further, the resistance in words result in the assay on Escherichia coli (septatype 261 (ST69)) is “highly susceptible”; with Escherichia coli (septatype 560 (ST131-H41)), “highly resistant”; in the assay with Escherichia coli (septatype 561 (ST131-H30)), “highly resistant”. Further, the prevalence of resistance in the assay on Escherichia coli came out at 28%. Moreover, the “Resistance rate in GH UC E. coli” value in the assay on E. coli [2] was 25.7%.
